According to ChEMBL document CHEMBL4311986, “Synthesis and biological evaluation of new multi-target 3-(1H-indol-3-yl)pyrrolidine-2,5-dione derivatives with potential antidepressant effect” (Eur J Med Chem, 2019):

How the values were obtained:
Mus musculus [1] = test: Induction of hypothermia in CD-1 mouse assessed as change in body temperature at 5 mg/kg, ip measured after 60 mins by thermometric method; assay type: functional, organism-based
[2] = target: 5-hydroxytryptamine receptor 7 (Homo sapiens, UniProt P34969); test: Displacement of [3H]-5-CT from human 5HT7 receptor expressed in HEK293 cells incubated for 1 hr by liquid scintillation counting method; assay type: cell-based
5-hydroxytryptamine receptor 7, sequence (P34969 whole entry): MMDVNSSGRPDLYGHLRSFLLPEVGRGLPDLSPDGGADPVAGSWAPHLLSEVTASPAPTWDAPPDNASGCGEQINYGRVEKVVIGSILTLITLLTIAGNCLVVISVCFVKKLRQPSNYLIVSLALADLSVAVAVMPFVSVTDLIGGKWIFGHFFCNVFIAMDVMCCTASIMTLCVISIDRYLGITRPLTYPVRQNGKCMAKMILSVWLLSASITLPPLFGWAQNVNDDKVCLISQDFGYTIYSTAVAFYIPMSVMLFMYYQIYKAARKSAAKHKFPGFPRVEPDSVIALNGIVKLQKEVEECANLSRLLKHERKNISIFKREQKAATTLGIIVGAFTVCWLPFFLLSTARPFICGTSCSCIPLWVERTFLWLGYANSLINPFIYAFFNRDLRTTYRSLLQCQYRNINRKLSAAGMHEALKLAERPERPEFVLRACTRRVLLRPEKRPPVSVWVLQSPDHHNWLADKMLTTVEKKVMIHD

Mus musculus [3] = test: Induction of hypothermia in CD-1 mouse assessed as change in body temperature at 20 mg/kg, ip measured after 30 mins by thermometric method; assay type: functional, organism-based
[4] = target: 5-hydroxytryptamine receptor 6 (Homo sapiens, UniProt P50406); test: Displacement of [3H]-LSD from human 5-HT6 receptor expressed in HEK293 cells incubated for 1 hr by liquid scintillation counting method; assay type: cell-based
5-hydroxytryptamine receptor 6, sequence (P50406 whole entry): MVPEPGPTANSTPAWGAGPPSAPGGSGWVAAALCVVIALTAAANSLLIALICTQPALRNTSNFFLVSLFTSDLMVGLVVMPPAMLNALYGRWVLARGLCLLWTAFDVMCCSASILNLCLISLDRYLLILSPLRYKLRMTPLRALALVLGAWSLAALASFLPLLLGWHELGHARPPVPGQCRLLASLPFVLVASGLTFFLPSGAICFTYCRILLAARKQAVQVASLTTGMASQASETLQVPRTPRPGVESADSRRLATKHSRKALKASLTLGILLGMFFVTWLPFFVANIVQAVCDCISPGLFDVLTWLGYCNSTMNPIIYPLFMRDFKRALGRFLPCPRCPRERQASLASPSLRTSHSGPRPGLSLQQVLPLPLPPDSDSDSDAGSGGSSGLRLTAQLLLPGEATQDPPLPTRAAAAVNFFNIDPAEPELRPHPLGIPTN

[5] = target: T1, 5-hydroxytryptamine receptor 1A (Homo sapiens, UniProt P08908); test: biochemical
T1 sequence (P08908 whole entry): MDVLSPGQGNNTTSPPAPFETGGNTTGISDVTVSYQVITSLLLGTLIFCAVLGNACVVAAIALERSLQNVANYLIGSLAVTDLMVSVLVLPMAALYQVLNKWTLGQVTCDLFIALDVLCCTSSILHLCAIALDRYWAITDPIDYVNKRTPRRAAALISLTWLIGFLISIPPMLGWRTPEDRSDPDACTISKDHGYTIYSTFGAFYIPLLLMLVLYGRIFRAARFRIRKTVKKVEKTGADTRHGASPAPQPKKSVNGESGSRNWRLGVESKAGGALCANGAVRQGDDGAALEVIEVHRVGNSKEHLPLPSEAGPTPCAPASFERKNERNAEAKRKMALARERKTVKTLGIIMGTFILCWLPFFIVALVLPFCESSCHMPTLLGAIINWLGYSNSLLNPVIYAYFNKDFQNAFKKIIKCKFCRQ

[6] = Half life in human liver microsomes at 1 uM measured for 5 to 30 mins in presence of NADPH by LC-MS/MS analysis; assay type: ADME, Microsome
[7] = target: Sodium-dependent serotonin transporter (Homo sapiens, UniProt P31645); test: Displacement of [3H]-imipramine from human serotonin transporter expressed in HEK293 cells membranes incubated for 30 mins by microbeta scintillation counting analysis; assay type: cell membranes
Sodium-dependent serotonin transporter, sequence (P31645 whole entry): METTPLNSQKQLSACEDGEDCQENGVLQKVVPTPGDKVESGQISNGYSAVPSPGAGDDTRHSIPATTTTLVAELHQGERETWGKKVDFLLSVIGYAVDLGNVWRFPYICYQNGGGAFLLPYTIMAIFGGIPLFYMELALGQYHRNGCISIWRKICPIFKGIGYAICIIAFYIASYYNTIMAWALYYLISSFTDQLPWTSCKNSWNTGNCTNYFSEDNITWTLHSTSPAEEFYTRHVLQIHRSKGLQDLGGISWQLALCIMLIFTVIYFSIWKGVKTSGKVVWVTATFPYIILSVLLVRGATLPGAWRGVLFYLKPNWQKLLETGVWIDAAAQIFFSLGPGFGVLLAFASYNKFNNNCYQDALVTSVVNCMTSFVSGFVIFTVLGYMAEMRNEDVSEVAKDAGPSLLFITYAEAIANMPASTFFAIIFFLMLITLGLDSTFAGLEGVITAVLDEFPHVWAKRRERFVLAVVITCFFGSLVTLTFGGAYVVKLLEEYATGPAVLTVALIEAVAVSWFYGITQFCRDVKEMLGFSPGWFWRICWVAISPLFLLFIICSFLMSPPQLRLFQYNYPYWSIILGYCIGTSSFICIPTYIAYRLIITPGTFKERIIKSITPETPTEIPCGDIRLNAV

Mus musculus [8] = test: Induction of hypothermia in CD-1 mouse assessed as change in body temperature at 20 mg/kg, ip measured after 120 mins by thermometric method; assay type: functional, organism-based
Mus musculus [9] = test: Induction of hypothermia in CD-1 mouse assessed as change in body temperature at 10 mg/kg, ip measured after 60 mins by thermometric method; assay type: functional, organism-based
Mus musculus [10] = test: Induction of hypothermia in CD-1 mouse assessed as change in body temperature at 10 mg/kg, ip measured after 90 mins by thermometric method; assay type: functional, organism-based
Mus musculus [11] = test: Induction of hypothermia in CD-1 mouse assessed as change in body temperature at 10 mg/kg, ip pretreated for 30 mins with 5-HT1AR antagonist WAY100635 followed by compound treatment and measured after 30 mins by thermometric method; assay type: functional, organism-based
D(2) dopamine receptor = D(2) dopamine receptor (Homo sapiens, UniProt P14416); test: Displacement of [3H]-raclopride from human D2L receptor expressed in HEK293 cells incubated for 1 hr by liquid scintillation counting method; assay type: cell-based
D(2) dopamine receptor, sequence (P14416 whole entry): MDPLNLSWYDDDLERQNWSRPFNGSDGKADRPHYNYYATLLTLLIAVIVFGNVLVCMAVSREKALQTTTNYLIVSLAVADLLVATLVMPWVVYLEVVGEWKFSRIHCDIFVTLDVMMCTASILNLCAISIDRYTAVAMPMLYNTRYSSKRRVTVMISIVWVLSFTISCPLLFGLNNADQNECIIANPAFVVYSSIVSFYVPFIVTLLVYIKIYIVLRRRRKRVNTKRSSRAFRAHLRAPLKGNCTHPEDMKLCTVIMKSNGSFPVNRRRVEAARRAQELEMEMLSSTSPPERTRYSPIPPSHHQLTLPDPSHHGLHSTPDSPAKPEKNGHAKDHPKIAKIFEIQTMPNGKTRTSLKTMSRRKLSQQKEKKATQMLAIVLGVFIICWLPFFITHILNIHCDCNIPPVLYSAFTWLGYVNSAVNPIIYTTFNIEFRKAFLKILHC

Mus musculus [12] = test: Induction of hypothermia in CD-1 mouse assessed as change in body temperature at 20 mg/kg, ip measured after 60 mins by thermometric method; assay type: functional, organism-based
Mus musculus [13] = test: Induction of hypothermia in CD-1 mouse assessed as change in body temperature at 10 mg/kg, ip measured after 30 mins by thermometric method; assay type: functional, organism-based
Mus musculus [14] = test: Induction of hypothermia in CD-1 mouse assessed as change in body temperature at 10 mg/kg, ip pretreated for 60 mins with 5-HT1AR antagonist WAY100635 followed by compound treatment and measured after 30 mins by thermometric method; assay type: functional, organism-based
Mus musculus [15] = test: Induction of hypothermia in CD-1 mouse assessed as change in body temperature at 10 mg/kg, ip measured after 120 mins by thermometric method; assay type: functional, organism-based
Mus musculus [16] = test: Induction of hypothermia in CD-1 mouse assessed as change in body temperature at 5 mg/kg, ip measured after 30 mins by thermometric method; assay type: functional, organism-based
Mus musculus [17] = test: Induction of hypothermia in CD-1 mouse assessed as change in body temperature at 5 mg/kg, ip measured after 90 mins by thermometric method; assay type: functional, organism-based
Mus musculus [18] = test: Induction of hypothermia in CD-1 mouse assessed as change in body temperature at 20 mg/kg, ip measured after 90 mins by thermometric method; assay type: functional, organism-based
Mus musculus [19] = test: Induction of hypothermia in CD-1 mouse assessed as change in body temperature at 5 mg/kg, ip measured after 120 mins by thermometric method; assay type: functional, organism-based
Mus musculus [20] = test: Induction of hypothermia in CD-1 mouse assessed as change in body temperature at 15 mg/kg, ip measured after 30 mins by thermometric method (reference value: -0.2 to 0.4 deg C); assay type: functional, organism-based
Mus musculus [21] = test: Induction of hypothermia in CD-1 mouse assessed as change in body temperature at 15 mg/kg, ip measured after 120 mins by thermometric method (reference value: -0.1 to 0.3 deg C); assay type: functional, organism-based
Mus musculus [22] = test: Induction of hypothermia in CD-1 mouse assessed as change in body temperature at 15 mg/kg, ip pretreated for 60 mins with 5-HT1AR antagonist WAY100635 followed by compound treatment and measured after 30 mins by thermometric method (reference value: -0.1 to 0.4 deg C); assay type: functional, organism-based
Mus musculus [23] = test: Induction of hypothermia in CD-1 mouse assessed as change in body temperature at 15 mg/kg, ip pretreated for 30 mins with 5-HT1AR antagonist WAY100635 followed by compound treatment and measured after 30 mins by thermometric method (reference value: -0.1 to 0.1 deg C); assay type: functional, organism-based
Mus musculus [24] = test: Induction of hypothermia in CD-1 mouse assessed as change in body temperature at 15 mg/kg, ip measured after 90 mins by thermometric method (reference value: -0.3 to 0.3 deg C); assay type: functional, organism-based
Mus musculus [25] = test: Induction of hypothermia in CD-1 mouse assessed as change in body temperature at 15 mg/kg, ip measured after 60 mins by thermometric method (reference value: -0.2 to 0.5 deg C); assay type: functional, organism-based

Row | Compound | Ki [2] | Ki [4] | Ki [5] | half-life at 1 µM [6] | Ki [7] | Ki (D(2) dopamine receptor) | deltaT (Mus musculus [1]) | deltaT (Mus musculus [3]) | deltaT (Mus musculus [8]) | deltaT (Mus musculus [9]) | deltaT (Mus musculus [10]) | deltaT (Mus musculus [12]) | deltaT (Mus musculus [13]) | deltaT (Mus musculus [15]) | deltaT (Mus musculus [16]) | deltaT (Mus musculus [17]) | deltaT (Mus musculus [18]) | deltaT (Mus musculus [19]) | further results
1 | O=C1CC(c2c[nH]c3ccc(F)cc23)C(=O)N1CCN1CCC(c2c[nH]c3ccc(F)cc23)CC1 (centres undefined) | – | – | 0.7 µM | – | 0.314 µM | – | – | – | – | – | – | – | – | – | – | – | – | – | –
2 | O=C1CC(c2c[nH]c3ccc(F)cc23)C(=O)N1CCCCN1CCC(c2c[nH]c3ccccc23)CC1 (centres undefined) | 0.05 µM | 0.029 µM | 0.013 µM | 10 min | 0.051 µM | 0.19 µM | -0.2 °C | -2.3 °C | -0.6 °C | 0.1 °C | 0 °C | -0.7 °C | -0.6 °C | -0.2 °C | -0.4 °C | -0.2 °C | -0.2 °C | -0.3 °C | deltaT (Mus musculus [20]): -1.8 °C; deltaT (Mus musculus [21]): -0.4 °C; deltaT (Mus musculus [22]): 0.3 °C; deltaT (Mus musculus [23]): 0.1 °C; deltaT (Mus musculus [24]): -0.4 °C; deltaT (Mus musculus [25]): -0.7 °C
3 | O=C1CC(c2c[nH]c3ccc(F)cc23)C(=O)N1CCCN1CCC(c2c[nH]c3ccc(F)cc23)CC1 (centres undefined) | – | – | 0.336 µM | – | 0.14 µM | – | – | – | – | – | – | – | – | – | – | – | – | – | –
4 | COc1ccc2[nH]cc(C3CC(=O)N(CCCN4CCC(c5c[nH]c6ccc(F)cc56)CC4)C3=O)c2c1 (centres undefined) | – | – | 0.246 µM | – | 0.03 µM | – | – | – | – | – | – | – | – | – | – | – | – | – | –
5 | COc1ccc2[nH]cc(C3CCCN(CCCCN4C(=O)CC(c5c[nH]c6ccc(OC)cc56)C4=O)C3)c2c1 (centres undefined) | – | – | 0.052 µM | – | – | – | – | – | – | – | – | – | – | – | – | – | – | – | –
6 | COc1ccc2[nH]cc(C3CC(=O)N(CCN4CCC(c5c[nH]c6ccc(F)cc56)CC4)C3=O)c2c1 (centres undefined) | – | – | 0.222 µM | – | 0.221 µM | – | – | – | – | – | – | – | – | – | – | – | – | – | –
7 | O=C1CC(c2c[nH]c3ccc(F)cc23)C(=O)N1CCN1CCC(c2c[nH]c3ccccc23)CC1 (centres undefined) | – | – | 0.32 µM | – | 0.102 µM | – | – | – | – | – | – | – | – | – | – | – | – | – | –

Now those with a lower Ki [5], led by results:

Row | Ki [2] | Ki [4] | Ki [5] | half-life at 1 µM [6] | Ki [7] | Ki (D(2) dopamine receptor) | Compound | deltaT (Mus musculus [1]) | deltaT (Mus musculus [3]) | deltaT (Mus musculus [8]) | deltaT (Mus musculus [9]) | deltaT (Mus musculus [10]) | deltaT (Mus musculus [12]) | deltaT (Mus musculus [13]) | deltaT (Mus musculus [15]) | deltaT (Mus musculus [16]) | deltaT (Mus musculus [17]) | deltaT (Mus musculus [18]) | deltaT (Mus musculus [19]) | further results
8 | 0.025 µM | 0.081 µM | 0.0063 µM | 10.5 min | 0.705 µM | 0.016 µM | COc1ccc2[nH]cc(C3CC(=O)N(CCCCN4CCC(c5c[nH]c6ccccc56)CC4)C3=O)c2c1 (centres undefined) | 0 °C | -2.9 °C | -0.9 °C | -0.4 °C | -0.4 °C | -1.5 °C | -1.3 °C | -0.4 °C | -0.2 °C | 0 °C | -1.1 °C | -0.1 °C | deltaT (Mus musculus [11]): 0.4 °C; deltaT (Mus musculus [14]): 0.5 °C
9 | 0.32 µM | 0.427 µM | 0.0023 µM | 9.7 min | 0.308 µM | 0.217 µM | COc1ccc2[nH]cc(C3CCN(CCCCN4C(=O)CC(c5c[nH]c6ccc(OC)cc56)C4=O)CC3)c2c1 (centres undefined) | 0.3 °C | -3.1 °C | -0.5 °C | 0.6 °C | 0.6 °C | -1.2 °C | -0.5 °C | 0.4 °C | 0.2 °C | 0.2 °C | -0.6 °C | 0.4 °C | deltaT (Mus musculus [20]): -0.9 °C; deltaT (Mus musculus [21]): 0.3 °C; deltaT (Mus musculus [22]): 0 °C; deltaT (Mus musculus [23]): 0.8 °C; deltaT (Mus musculus [24]): 0.5 °C; deltaT (Mus musculus [25]): 0.2 °C
10 | 0.458 µM | 0.071 µM | 0.0032 µM | 9.9 min | 0.201 µM | 0.02 µM | COc1ccc2[nH]cc(C3CCN(CCCCN4C(=O)CC(c5c[nH]c6ccc(F)cc56)C4=O)CC3)c2c1 (centres undefined) | 0.6 °C | -3.2 °C | -0.2 °C | 0.2 °C | 0.2 °C | -1.4 °C | -1.1 °C | 0.3 °C | 0.4 °C | 0.6 °C | -0.6 °C | 0.8 °C | deltaT (Mus musculus [11]): -0.4 °C; deltaT (Mus musculus [14]): 0.8 °C
11 | 0.641 µM | 0.085 µM | 0.0049 µM | 9.9 min | 0.0175 µM | 0.062 µM | COc1ccc2[nH]cc(C3CC(=O)N(CCCCN4CCC(c5c[nH]c6ccc(F)cc56)CC4)C3=O)c2c1 (centres undefined) | 0.4 °C | -1.8 °C | 0.6 °C | -0.1 °C | 0.3 °C | 0.5 °C | -1.3 °C | 0.4 °C | -0.1 °C | 0.1 °C | 0.6 °C | -0.4 °C | deltaT (Mus musculus [11]): -0.1 °C; deltaT (Mus musculus [14]): -0.2 °C
